Data taken from ChEMBL document CHEMBL3044842, “Composition and antifungal activity on soil-borne pathogens of the essential oil of Salvia sclarea from Greece” (J Agric Food Chem, 2002).

Assays:
Format in all cases: functional, organism-based
[1] = system: Sclerotinia sclerotiorum; test: Antifungal activity against Sclerotinia sclerotiorum after 4 days
[2] = system: Fusarium oxysporum f. sp. dianthi; test: Antifungal activity against Fusarium oxysporum f. sp. dianthi after 4 days
[3] = system: Stromatinia cepivora; test: Antifungal activity against Sclerotium cepivorum after 4 days

Row | SMILES | EC50 [1] [uL/L] | EC50 [2] [uL/L] | EC50 [3] [uL/L]
1 | C=CC(C)(O)CCC=C(C)C (stereo unspecified) [LINALOOL] | 146.15 | 661.76 | 563.94
2 | C=CC(C)(CCC=C(C)C)OC(C)=O (stereo unspecified) [LINALYL ACETATE] | 549.62 | > 1500 | > 1500
